Source: the supplement of paper PMC10307832

Legend:
Assay in all cases: relative viability (nuclei count vs DMSO), 5 days (fraction); higher = more cells survive
BI-D1870 + Phenformin = compound: CC(C)CCN1c2nc(Nc3cc(F)c(O)c(F)c3)ncc2N(C)C(=O)C1C [BI-D1870] + N=C(N)NC(=N)NCCc1ccccc1 [Phenformin] (partner 250 µM)
How it was run: (§1)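 A single step with final 0.05% Triton X-100, 1% formaldehyde and 1 ug/ml Hoechst fixed the cells and stained nuclei 5 days after treatment. Lung cancer cell lines in 1536-well plates had been treated by pin tool the day after seeding with one drug alone or a fixed anchor-drug dose plus five library-drug doses (not always all listed) in √10 steps, and nuclei were counted on 4× images. Relative viability is the ratio of nuclei in treated wells to nuclei in vehicle wells, taken as the median of duplicate plates.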

Zebularine + Luminespib = compound: O=c1ncccn1[C@@H]1O[C@H](CO)[C@@H](O)[C@H]1O [Zebularine] + CCNC(=O)c1noc(-c2cc(C(C)C)c(O)cc2O)c1-c1ccc(CN2CCOCC2)cc1 [Luminespib] (partner 0.01 µM)
How it was run: as §1

Zebularine + Alpelisib = compound: O=c1ncccn1[C@@H]1O[C@H](CO)[C@@H](O)[C@H]1O [Zebularine] + Cc1nc(NC(=O)N2CCC[C@H]2C(N)=O)sc1-c1ccnc(C(C)(C)C(F)(F)F)c1 [Alpelisib] (partner 2 µM)
How it was run: as §1

BI-D1870 + Navitoclax = compound: CC(C)CCN1c2nc(Nc3cc(F)c(O)c(F)c3)ncc2N(C)C(=O)C1C [BI-D1870] + CC1(C)CCC(c2ccc(Cl)cc2)=C(CN2CCN(c3ccc(C(=O)NS(=O)(=O)c4ccc(N[C@H](CCN5CCOCC5)CSc5ccccc5)c(S(=O)(=O)C(F)(F)F)c4)cc3)CC2)C1 [Navitoclax] (partner 0.5 µM)
How it was run: as §1

Cell Line | relative viability (BI-D1870 + Phenformin; first compound 0.04 µM) | relative viability (BI-D1870 + Phenformin; first compound 0.1265 µM) | relative viability (BI-D1870 + Phenformin; first compound 0.4 µM) | relative viability (BI-D1870 + Phenformin; first compound 1.265 µM) | relative viability (BI-D1870 + Phenformin; first compound 4 µM) | relative viability (Zebularine + Luminespib; first compound 1 µM) | relative viability (Zebularine + Luminespib; first compound 3.162 µM) | relative viability (Zebularine + Luminespib; first compound 10 µM) | relative viability (Zebularine + Luminespib; first compound 31.62 µM) | relative viability (Zebularine + Luminespib; first compound 100 µM) | relative viability (Zebularine + Alpelisib; first compound 1 µM) | relative viability (Zebularine + Alpelisib; first compound 3.162 µM) | relative viability (Zebularine + Alpelisib; first compound 10 µM) | relative viability (Zebularine + Alpelisib; first compound 31.62 µM) | relative viability (Zebularine + Alpelisib; first compound 100 µM) | relative viability (BI-D1870 + Navitoclax; first compound 0.04 µM) | relative viability (BI-D1870 + Navitoclax; first compound 0.1265 µM) | relative viability (BI-D1870 + Navitoclax; first compound 0.4 µM) | relative viability (BI-D1870 + Navitoclax; first compound 1.265 µM) | relative viability (BI-D1870 + Navitoclax; first compound 4 µM)
NCI-H2405 | 0.436 | 0.415 | 0.386 | 0.438 | 0.398 | 0.705 | 0.779 | 0.651 | 0.797 | 0.498 | 0.749 | 0.749 | 0.726 | 0.769 | 0.568 | 1.17 | 0.774 | 0.977 | 0.844 | 0.671
NCI-H3122 | 0.362 | 0.354 | 0.383 | 0.39 | 0.346 | 0.11 | 0.0829 | – | 0.111 | 0.0803 | 0.991 | 0.822 | 0.573 | 0.871 | 0.703 | 1 | 0.927 | 1.1 | 0.993 | 1.04
PC-3 [JPC-3] | 0.514 | 0.485 | 0.482 | 0.498 | 0.484 | 0.79 | 0.667 | 0.553 | 0.466 | 0.493 | 1.09 | 0.948 | 0.748 | 0.824 | 0.469 | 0.812 | 0.739 | 0.743 | 0.809 | 0.734
PC-14 | 0.669 | 0.521 | 0.587 | 0.627 | 0.447 | 0.107 | 0.134 | 0.158 | 0.131 | 0.157 | 1.04 | 0.953 | 0.232 | 0.111 | 0.163 | 1.08 | 0.961 | 0.991 | 1.07 | 0.928
RERF-LC-KJ | 0.422 | 0.396 | 0.407 | 0.435 | 0.285 | 1.29 | 1.17 | 0.827 | 1.54 | 1.53 | 0.93 | 0.859 | 0.611 | 1.03 | 0.753 | 0.917 | 0.632 | 0.979 | 1.02 | 0.888
SK-LU-1 | 0.505 | 0.525 | 0.514 | 0.63 | 0.358 | 0.231 | 0.187 | 0.22 | 0.229 | 0.183 | 1.2 | 0.875 | 0.66 | 0.745 | 0.468 | 1 | 1.09 | 0.852 | 0.54 | 0.0905
SK-MES-1 | 0.732 | 0.593 | 0.613 | 0.648 | 0.363 | 0.656 | 0.755 | 0.458 | 0.347 | 0.251 | 0.902 | 1.01 | 0.596 | 0.575 | 0.345 | 1.25 | 1.23 | 1.15 | 1.07 | 0.692
SW 1573 | 0.487 | 0.212 | 0.308 | 0.394 | 0.144 | 0.181 | 0.34 | 0.173 | 0.41 | 0.285 | 0.728 | 0.792 | 0.448 | 0.743 | 0.646 | 0.93 | 0.81 | 1.13 | 0.852 | 0.602
